Data taken from publication PMC13621370, “Targeting Telomere Shelterin Protein TPP1 with Elbasvir: Induction of Autophagy and Suppression of Esophageal Cancer Tumorigenesis” (Anti-Cancer Agents in Medicinal Chemistry, 2025).

Biological target: T1, telomere shelterin protein TPP1 (Homo sapiens, UniProt Q96AP0)
T1 construct: gene ACD; endogenous protein in RIPA lysate of KYSE150 and TE1 cells; not purified; 2I46 used only for docking
T1 sequence (Q96AP0 1-458): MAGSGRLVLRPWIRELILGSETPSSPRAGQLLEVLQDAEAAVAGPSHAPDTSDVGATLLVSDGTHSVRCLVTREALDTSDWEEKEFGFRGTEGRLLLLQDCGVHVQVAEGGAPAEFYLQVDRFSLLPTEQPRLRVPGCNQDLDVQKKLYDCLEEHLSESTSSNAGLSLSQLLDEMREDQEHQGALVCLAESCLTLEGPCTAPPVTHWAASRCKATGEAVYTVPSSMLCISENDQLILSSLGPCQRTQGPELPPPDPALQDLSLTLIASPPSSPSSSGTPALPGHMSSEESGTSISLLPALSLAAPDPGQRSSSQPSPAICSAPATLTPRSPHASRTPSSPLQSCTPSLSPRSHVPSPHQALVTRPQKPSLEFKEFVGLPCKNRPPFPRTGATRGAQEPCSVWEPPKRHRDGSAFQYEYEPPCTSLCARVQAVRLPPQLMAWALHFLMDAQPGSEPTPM
Assay: DARTS (pronase protection, Western blot of TPP1)
Assay type: biochemical
Details: 400 uM Elbasvir, cell lysate, ambient temperature, 2 h, then pronase 20 min

## COC(=O)N[C@H](C(=O)N1CCC[C@H]1c1ncc(-c2ccc3c(c2)O[C@@H](c2ccccc2)n2c-3cc3cc(-c4cnc([C@@H]5CCCN5C(=O)[C@@H](NC(=O)OC)C(C)C)[nH]4)ccc32)[nH]1)C(C)C [Elbasvir]
  DARTS (pronase protection, Western blot of TPP1): the presence of Elbasvir increased the stability of TPP1 protein, protecting it from proteolysis
